The values below are quoted from earlier work in patent US10966960B2 (Treeway TW001 B.V., priority 2017, dated 2021).

SMILES strings stand for the structures. Converted amounts (≈) assume the structure as drawn.

For this data set the following is noted: 25° C.

As to `CC1=NN(c2ccccc2)C(=O)C1` [edaravone, 3-methyl-1-phenyl-2-pyrazolin-5-one], the solubility in water was approximately 1850 µg/mL (≈ 10.6 mM).
